Laboratory results as given in US10316017B2, “COT modulators and methods of use thereof” (Gilead Sciences, Inc., priority 2015, dated 2019).

Legend:
[1] = target: T1, human Cot catalytic domain (30-397 amino acids) (Homo sapiens, UniProt P41279); assay: High Throughput Cot Biochemical Assay (KinEASE TR-FRET); details: Cot KinEASE TR-FRET (HTRF) biochemical assay, 400 μM ATP; read-out: IC50 HTRF
T1 construct: Purified recombinant human Cot catalytic domain (30-397 amino acids) was purchased from Cama Biosciences; purchased Cama Biosciences (so in the source)
T1 sequence (P41279 30-397): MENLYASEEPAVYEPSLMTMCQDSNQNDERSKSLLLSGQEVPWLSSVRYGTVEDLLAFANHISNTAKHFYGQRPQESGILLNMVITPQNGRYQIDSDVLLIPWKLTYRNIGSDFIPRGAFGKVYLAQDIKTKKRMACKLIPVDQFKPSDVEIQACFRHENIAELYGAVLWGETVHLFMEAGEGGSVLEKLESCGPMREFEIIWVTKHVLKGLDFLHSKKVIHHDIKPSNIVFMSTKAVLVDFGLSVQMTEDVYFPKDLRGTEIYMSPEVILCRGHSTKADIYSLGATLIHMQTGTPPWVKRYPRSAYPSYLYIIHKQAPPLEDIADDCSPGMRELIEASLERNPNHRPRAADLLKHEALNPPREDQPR
In short: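 Reaction of 5 nM recombinant human Cot catalytic domain (aa 30-397) with 1 μM STK3 peptide (XL665-labeled) and 400 μM ATP in 10 mM MOPS pH 7.0, 10 mM MgOAc, 1 mM DTT, 0.5 mg/mL BSA, 0.1% DMSO. Phosphopeptide detected by TR-FRET with europium anti-phospho antibody.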

[2] = system: TNFα production in LPS-stimulated human monocytes; assay: Cot Monocyte TNFα Cell Based Assay; details: Homo sapiens, Monocyte, TNFα in LPS-stimulated human monocytes; read-out: EC50 TNF
In short: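 Cells at 5,000/well were pretreated with compound for 1 h at 37 °C (0.5% DMSO final), then stimulated with 50 pg/ml LPS for 4 h at 37 °C. Supernatant TNFα was measured by two-antibody TR-FRET after overnight room-temperature incubation; values are percent of control between unstimulated and stimulated wells.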

Row | SMILES | IC50 [1] [nM] | EC50 [2] [nM]
1 | [2H][C@@](Nc1cc(Cl)c2ncc(C#N)c(NC3CC4CCC3CC4)c2c1)(c1ccc(F)cc1)c1cn(C2CC2)nn1 (stereo partly drawn) [Example 277, 4-(((1s,4s)-bicyclo[2.2.2]octan-2-yl)amino)-8-chloro-6-(((S)-(1-cyclopropyl-1H-1,2,3-triazol-4-yl)(4-fluorophenyl)methyl-d)amino)quinoline-3-carbonitrile] | 32 | 858
2 | [2H][C@](Nc1cc(Cl)c2ncc(C#N)c(N)c2c1)(c1ccc(F)cc1)c1cn(C2CC2)nn1 [Example 279, 4-amino-8-chloro-6-(((S)-(1-cyclopropyl-1H-1,2,3-triazol-4-yl)(4-fluorophenyl)methyl-d)amino)quinoline-3-carbonitrile] | 3050 | 8200
3 | [2H][C@](Nc1cc(Cl)c2ncc(C#N)c(NOC(C)(C)C)c2c1)(c1ccc(F)cc1)c1cn(C2CC2)nn1 [Example 280, (S)-4-(tert-butoxyamino)-8-chloro-6-(((1-cyclopropyl-1H-1,2,3-triazol-4-yl)(4-fluorophenyl)methyl-d)amino)quinoline-3-carbonitrile] | 228 | 1470
4 | [2H][C@](Nc1cc(Cl)c2ncc(C#N)c(N[C@H](CC)c3cccc(C)c3)c2c1)(c1ccc(F)cc1)c1cn(C2CC2)nn1 [Example 281, 8-chloro-6-(((S)-(1-cyclopropyl-1H-1,2,3-triazol-4-yl)(4-fluorophenyl)methyl-d)amino)-4-(((R)-1-(m-tolyl)propyl)amino)quinoline-3-carbonitrile] | 68 | 1040
5 | [2H][C@](Nc1cc(Cl)c2ncc(C#N)c(NC(C)(C)CC)c2c1)(c1ccc(F)cc1)c1cn(C2CC2)nn1 [Example 282, (S)-8-chloro-6-(((1-cyclopropyl-1H-1,2,3-triazol-4-yl)(4-fluorophenyl)methyl-d)amino)-4-(tert-pentylamino) quinoline-3-carbonitrile] | 39 | 525
6 | [2H][C@](Nc1cc(Cl)c2ncc(C#N)c(NC(C)(C)C)c2c1)(c1ccc(F)cc1)c1cn(C2CC2)nn1 [Example 283, (S)-4-(tert-butylamino)-8-chloro-6-(((1-cyclopropyl-1H-1,2,3-triazol-4-yl)(4-fluorophenyl)methyl-d)amino)quinoline-3-carbonitrile] | 90 | 764
7 | CC[C@@H](Nc1c(C#N)cnc2c(Cl)cc(N[C@H](c3cn(C4CC4)nn3)c3cccc(Cl)c3Cl)cc12)c1ccccc1 [Example 294, 8-chloro-6-(((S)-(1-cyclopropyl-1H-1,2,3-triazol-4-yl)(2,3-dichlorophenyl)methyl)amino)-4-(((R)-1-phenylpropyl)amino)quinoline-3-carbonitrile] | 92 | 1880
8 | [2H][C@](Nc1cc(Cl)c2ncc(C#N)c(N[C@@H](CC#N)c3ccccc3)c2c1)(c1cccc(C#N)c1)c1cn(C2CC2)nn1 [Example 295, 8-chloro-4-(((S)-2-cyano-1-phenylethyl)amino)-6-(((S)-(3-cyanophenyl)(1-cyclopropyl-1H-1,2,3-triazol-4-yl)methyl-d)amino)quinoline-3-carbonitrile] | 389 | > 10000

These reach a lower IC50 [1]. Values come first.

Row | IC50 [1] [nM] | EC50 [2] [nM] | SMILES
9 | 23 | 246 | [2H][C@](Nc1cc(Cl)c2ncc(C#N)c(Nc3c(F)ccc(Cl)c3F)c2c1)(c1cccc(C#N)c1)c1cn(C2CC2)nn1 [Example 275, (S)-8-chloro-4-((3-chloro-2,6-difluorophenyl)amino)-6-(((3-cyanophenyl)(1-cyclopropyl-1H-1,2,3-triazol-4-yl)methyl-d)amino)quinoline-3-carbonitrile]
10 | 3 | 166 | [2H][C@](Nc1cc(Cl)c2ncc(C#N)c(NCC3(C)CCC3)c2c1)(c1cccc(C#N)c1)c1cn(C2CC2)nn1 [Example 276, (S)-8-chloro-6-(((3-cyanophenyl)(1-cyclopropyl-1H-1,2,3-triazol-4-yl)methyl-d)amino)-4-(((1-methylcyclobutyl)methyl)amino) quinoline-3-carbonitrile]
11 | 4 | 52 | [2H][C@](Nc1cc(C#N)c2ncc(C#N)c(NCC(C)(C)C)c2c1)(c1ccc(F)cc1)c1cn(C2CC2)nn1 [Example 284, (S)-6-(((1-cyclopropyl-1H-1,2,3-triazol-4-yl)(4-fluorophenyl)methyl-d)amino)-4-(neopentylamino) quinoline-3,8-dicarbonitrile]
12 | 3 | 45 | [2H][C@](Nc1cc(C#N)c2ncc(C#N)c(N[C@H](CC)c3ccccc3)c2c1)(c1ccc(F)cc1)c1cn(C2CC2)nn1 [Example 285, 6-(((S)-(1-cyclopropyl-1H-1,2,3-triazol-4-yl)(4-fluorophenyl)methyl-d)amino)-4-(((R)-1-phenylpropyl)amino) quinoline-3,8-dicarbonitrile]
13 | 10 | 140 | [2H][C@](Nc1cc(Br)c2ncc(C#N)c(NCC(C)(C)C)c2c1)(c1ccc(F)cc1)c1cn(C2CC2)nn1 [Example 287, (S)-8-bromo-6-(((1-cyclopropyl-1H-1,2,3-triazol-4-yl)(4-fluorophenyl)methyl-d)amino)-4-(neopentylamino)quinoline-3-carbonitrile]
14 | 6 | 130 | [2H][C@](Nc1cc(Br)c2ncc(C#N)c(N[C@H](CC)c3ccccc3)c2c1)(c1ccc(F)cc1)c1cn(C2CC2)nn1 [Example 288, 8-bromo-6-(((S)-(1-cyclopropyl-1H-1,2,3-triazol-4-yl)(4-fluorophenyl)methyl-d)amino)-4-(((R)-1-phenylpropyl)amino)quinoline-3-carbonitrile]
15 | 4 | 116 | [2H][C@@](Nc1cc(Cl)c2ncc(C#N)c(NCC(C)(C)C)c2c1)(c1cn(C2CC2)nn1)c1cccc(C#N)c1Cl [Example 289, (S)-8-chloro-6-(((2-chloro-3-cyanophenyl)(1-cyclopropyl-1H-1,2,3-triazol-4-yl)methyl-d)amino)-4-(neopentylamino) quinoline-3-carbonitrile]
16 | 8 | 173 | [2H][C@](Nc1cc(F)c2ncc(C#N)c(N[C@H](CC)c3ccccc3)c2c1)(c1ccc(F)cc1)c1cn(C2CC2)nn1 [Example 291, 6-(((S)-(1-cyclopropyl-1H-1,2,3-triazol-4-yl)(4-fluorophenyl)methyl-d)amino)-8-fluoro-4-(((R)-1-phenylpropyl)amino) quinoline-3-carbonitrile]
17 | 13 | 237 | [2H][C@@](Nc1cc(Cl)c2ncc(C#N)c(N[C@H](CC)c3ccccc3)c2c1)(c1cn(C2CC2)nn1)c1cccc(C#N)c1Cl [Example 292, 8-chloro-6-(((S)-(2-chloro-3-cyanophenyl)(1-cyclopropyl-1H-1,2,3-triazol-4-yl)methyl-d)amino)-4-(((R)-1-phenylpropyl)amino)quinoline-3-carbonitrile]
18 | 24 | 469 | N#Cc1cnc2c(Cl)cc(N[C@H](c3cn(C4CC4)nn3)c3cccc(Cl)c3Cl)cc2c1Nc1cnc(F)c(F)c1 [Example 293, (S)-8-chloro-6-(((1-cyclopropyl-1H-1,2,3-triazol-4-yl)(2,3-dichlorophenyl)methyl)amino)-4-((5,6-difluoropyridin-3-yl)amino)quinoline-3-carbonitrile]
